In ChEMBL document CHEMBL1157910, “Structural requirement(s) of N-phenylthioureas and benzaldehyde thiosemicarbazones as inhibitors of melanogenesis in melanoma B 16 cells” (Bioorg Med Chem Lett, 2010):

Tests used:
[1] = system: B16; assay: Inhibition of melanogenesis in mouse B16 cells; format: functional, cell-based
[2] = system: B16; assay: Inhibition of melanogenesis in mouse B16 cells at 10 uM; format: functional
[3] = system: B16; assay: Selectivity ratio for inhibition of melanogenesis in mouse B16 cell of compound to N-phenylthiourea; format: functional

IC50 [1] [µM] | Compound | inhibition at 10 µM [2] [%] | Ratio [3]
> 10 | CCc1ccccc1NC(N)=S | < 10 | –
> 10 | NC(=S)Nc1ccccc1CO | < 10 | –
> 10 | NC(=S)NCc1ccccc1 | < 10 | –
> 10 | NC(=S)NCCc1ccccc1 | < 10 | –
> 10 | NC(=S)NCCCc1ccccc1 | < 10 | –
> 10 | NC(=S)NCCCCc1ccccc1 | < 10 | –
5.5 | Cc1ccc(NC(N)=S)cc1 | 83 | –
4.9 | CCc1ccc(NC(N)=S)cc1 | 88 | –
3.7 | CC(C)(C)c1ccc(NC(N)=S)cc1 | 95 | –
4 | NC(=S)Nc1ccc(Cl)cc1 | 84 | –
6.3 | NC(=S)Nc1ccc(O)cc1 | 70 | –
5.6 | COc1ccc(NC(N)=S)cc1 | 80 | –
> 10 | CC(C)(C)c1ccccc1NC(N)=S | < 10 | –
> 10 | COc1ccccc1NC(N)=S | < 10 | –
6.8 | Cc1ccc(/C=N/NC(N)=S)cc1 | 64 | –
3.4 | CCc1ccc(/C=N/NC(N)=S)cc1 | 100 | 2
> 10 | NC(=S)N/N=C/c1ccccc1 [PHENYLTHIOSEMICARBAZONE] | < 10 | –

Compound | IC50 [1] [µM] | inhibition at 10 µM [2] [%] | Ratio [3]
Cc1cccc(NC(N)=S)c1 | 5 | 78 | –
Cc1ccccc1NC(N)=S | > 10 | < 10 | –
NC(=S)Nc1ccccc1 [PHENYLTHIOUREA] | 5.4 | 84 | –
